ChEMBL document CHEMBL1909046, “DrugMatrix in vitro pharmacology data”

Key:
Substance-K receptor = target: T1, Substance-K receptor (Homo sapiens, UniProt P21452); format: cell membranes, CHO, Membrane; further: in other assays of this panel Not Active means under 50% inhibition at 10 µM
T1 sequence (P21452 whole entry): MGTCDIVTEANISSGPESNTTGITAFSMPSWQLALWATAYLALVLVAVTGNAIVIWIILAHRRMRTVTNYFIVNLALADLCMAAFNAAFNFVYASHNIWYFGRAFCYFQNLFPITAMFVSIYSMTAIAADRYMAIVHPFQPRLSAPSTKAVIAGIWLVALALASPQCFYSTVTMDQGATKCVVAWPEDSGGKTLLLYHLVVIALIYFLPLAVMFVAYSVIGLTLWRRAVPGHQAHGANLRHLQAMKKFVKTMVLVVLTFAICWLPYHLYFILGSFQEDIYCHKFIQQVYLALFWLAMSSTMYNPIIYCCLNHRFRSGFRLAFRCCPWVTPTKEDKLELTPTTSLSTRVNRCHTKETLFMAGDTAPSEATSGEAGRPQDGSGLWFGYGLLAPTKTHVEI

[1] = target: T2, Alpha-2A adrenergic receptor (Homo sapiens, UniProt P08913); format: cell membranes, Sf9, Membrane; details: sf9; further: in other assays of this panel Not Active means under 50% inhibition at 10 µM
T2 sequence (P08913 whole entry): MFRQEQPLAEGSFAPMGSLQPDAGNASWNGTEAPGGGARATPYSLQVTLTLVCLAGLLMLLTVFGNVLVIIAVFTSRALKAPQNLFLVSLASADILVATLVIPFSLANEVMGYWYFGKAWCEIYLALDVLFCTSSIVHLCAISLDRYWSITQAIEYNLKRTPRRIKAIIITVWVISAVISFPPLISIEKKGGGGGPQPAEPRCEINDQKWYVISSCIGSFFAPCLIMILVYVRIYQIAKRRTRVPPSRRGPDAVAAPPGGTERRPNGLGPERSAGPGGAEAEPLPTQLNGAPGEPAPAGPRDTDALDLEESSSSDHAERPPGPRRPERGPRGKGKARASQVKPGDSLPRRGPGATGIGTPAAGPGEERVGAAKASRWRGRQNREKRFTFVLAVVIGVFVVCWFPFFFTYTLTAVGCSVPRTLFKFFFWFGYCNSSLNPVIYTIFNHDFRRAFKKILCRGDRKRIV

[2] = DRUGMATRIX: beta-Lactamase enzyme inhibition (substrate: Nitrocefin); design: species or system Bacillus cereus; details: Not Active = under 50% inhibition at 10 µM
[3] = DRUGMATRIX: Atrial Natriuretic Factor (ANF) radioligand binding (ligand: [125I] ANF (rat)); format: cell membranes, Cavia porcellus, Dunkin-Hartley, Adrenal gland, Membrane; details: Not Active = under 50% inhibition at 10 µM
[4] = target: C-C chemokine receptor type 2 (Homo sapiens, UniProt P41597); format: cell membranes, CHO-K1, Membrane; further: in other assays of this panel Not Active means under 50% inhibition at 10 µM
Chain of C-C chemokine receptor type 2 (P41597 whole entry): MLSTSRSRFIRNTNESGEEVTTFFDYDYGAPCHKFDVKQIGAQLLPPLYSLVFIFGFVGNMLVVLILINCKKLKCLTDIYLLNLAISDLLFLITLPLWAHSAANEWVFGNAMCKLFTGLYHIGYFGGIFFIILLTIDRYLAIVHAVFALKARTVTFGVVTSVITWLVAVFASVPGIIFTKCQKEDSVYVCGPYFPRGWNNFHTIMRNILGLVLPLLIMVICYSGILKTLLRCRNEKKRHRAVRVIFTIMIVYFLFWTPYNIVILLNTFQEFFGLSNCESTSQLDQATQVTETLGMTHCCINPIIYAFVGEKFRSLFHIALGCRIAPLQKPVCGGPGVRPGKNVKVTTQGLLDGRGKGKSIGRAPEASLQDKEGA

[5] = DRUGMATRIX: Calcium Channel Type L, Dihydropyridine radioligand binding (ligand: [3H] Nitrendipine); format: cell membranes, Rattus norvegicus, Wistar, Cerebral cortex, Membrane; details: Not Active = under 50% inhibition at 10 µM

| Compound | IC50 (Substance-K receptor; cho) | IC50 [1] | IC50 [2] | Ki [2] | IC50 [3] | Ki [3] | IC50 ([4]; cho-k1) | IC50 [5] | Ki [5] | Ki (Substance-K receptor; cho) | Ki [1] | Ki ([4]; cho-k1) | IC50 ([4]; read-out: IC50) | Ki ([4]; read-out: Ki) | IC50 (Substance-K receptor; read-out: IC50) | Ki (Substance-K receptor; read-out: Ki) |
| --- | --- | --- | --- | --- | --- | --- | --- | --- | --- | --- | --- | --- | --- | --- | --- | --- |
| Cc1cnc(C(=O)NCCc2ccc(S(=O)(=O)NC(=O)NC3CCCCC3)cc2)cn1 [GLIPIZIDE] | Not Active | Not Active | Not Active | Not Active | Not Active | Not Active | Not Active | Not Active | Not Active | – | – | – | – | – | – | – |
| CC(CCc1ccc(O)cc1)NCCc1ccc(O)c(O)c1 (centres undefined) [DOBUTAMINE] | Not Active | Not Active | Not Active | Not Active | Not Active | Not Active | Not Active | Not Active | Not Active | – | – | – | – | – | – | – |
| Nc1nc(Cl)nc2c1ncn2[C@H]1C[C@H](O)[C@@H](CO)O1 [CLADRIBINE] | Not Active | Not Active | Not Active | Not Active | Not Active | Not Active | Not Active | Not Active | Not Active | – | – | – | – | – | – | – |
| Cc1cccc(Nc2cc(Cl)nc(SCC(=O)O)n2)c1C [PIRINIXIC ACID] | Not Active | Not Active | Not Active | Not Active | Not Active | Not Active | Not Active | Not Active | Not Active | – | – | – | – | – | – | – |
| INSULIN HUMAN | Not Active | Not Active | Not Active | Not Active | Not Active | Not Active | Not Active | Not Active | Not Active | Not Active | Not Active | Not Active | – | – | – | – |
| CCn1cc(C(=O)O)c(=O)c2cc(F)c(N3CCNCC3)nc21 [ENOXACIN] | Not Active | Not Active | Not Active | Not Active | Not Active | Not Active | Not Active | Not Active | Not Active | – | – | – | – | – | – | – |
| O=C(O)c1cc(=O)c2c(OCC(O)COc3cccc4oc(C(=O)O)cc(=O)c34)cccc2o1 [CROMOLYN] | Not Active | Not Active | Not Active | Not Active | Not Active | Not Active | Not Active | Not Active | Not Active | – | – | – | – | – | – | – |
| CC(=O)OCC(CCn1cnc2cnc(N)nc21)COC(C)=O [FAMCICLOVIR] | Not Active | Not Active | Not Active | Not Active | Not Active | Not Active | Not Active | Not Active | Not Active | – | – | – | – | – | – | – |
| O=P1(N(CCCl)CCCl)NCCCO1 (centres undefined) [CYCLOPHOSPHAMIDE ANHYDROUS] | Not Active | Not Active | Not Active | Not Active | Not Active | Not Active | Not Active | Not Active | Not Active | – | – | – | – | – | – | – |
| O=c1cc(-c2ccccc2)oc2ccc3ccccc3c12 [BETA-NAPHTHOFLAVONE] | Not Active | Not Active | Not Active | Not Active | Not Active | Not Active | Not Active | Not Active | Not Active | – | – | – | – | – | – | – |
| CC(C)(Sc1cc(C(C)(C)C)c(O)c(C(C)(C)C)c1)Sc1cc(C(C)(C)C)c(O)c(C(C)(C)C)c1 [PROBUCOL] | Not Active | Not Active | Not Active | Not Active | Not Active | Not Active | Not Active | Not Active | Not Active | – | – | – | – | – | – | – |
| CO[C@@]1(NC(=O)CSCC#N)C(=O)N2C(C(=O)O)=C(CSc3nnnn3C)CS[C@@H]21 [CEFMETAZOLE] | Not Active | Not Active | Not Active | Not Active | Not Active | Not Active | Not Active | Not Active | Not Active | – | – | – | – | – | – | – |
| CC(=O)O[C@]1(C(C)=O)CC[C@H]2[C@@H]3C=C(C)C4=CC(=O)CC[C@]4(C)[C@H]3CC[C@@]21C [MEGESTROL ACETATE] | Not Active | Not Active | Not Active | Not Active | Not Active | Not Active | Not Active | Not Active | Not Active | – | – | – | – | – | – | – |
| COc1cc(CNC(=O)CCCC/C=C/C(C)C)ccc1O [CAPSAICIN] | Not Active | Not Active | Not Active | Not Active | Not Active | Not Active | Not Active | Not Active | Not Active | – | – | – | – | – | – | – |
| CC(C)(C)c1ccc(S(=O)(=O)/C=C/C#N)cc1 [BAY-11-7085] | Not Active | Not Active | Not Active | Not Active | Not Active | Not Active | – | Not Active | Not Active | – | – | – | 4.18 µM | 1.61 µM | – | – |
| CC[C@H](C)C(=O)O[C@H]1C[C@@H](C)C=C2C=C[C@H](C)[C@H](CC[C@@H]3C[C@@H](O)CC(=O)O3)[C@H]21 [LOVASTATIN] | – | Not Active | Not Active | Not Active | Not Active | Not Active | Not Active | Not Active | Not Active | – | – | – | – | – | 28.2 µM | 9.41 µM |
| O=C(c1ccccc1Cl)N1CCC(Cc2ccccc2)CC1 | Not Active | Not Active | Not Active | Not Active | Not Active | Not Active | Not Active | Not Active | Not Active | – | – | – | – | – | – | – |
| CCOC(=O)[C@H](CCc1ccccc1)N[C@@H](C)C(=O)N1Cc2ccccc2C[C@H]1C(=O)O | Not Active | Not Active | Not Active | Not Active | Not Active | Not Active | Not Active | Not Active | Not Active | – | – | – | – | – | – | – |
| CC[C@H]1OC(=O)[C@H](C)[C@@H](O[C@H]2C[C@@](C)(OC)[C@@H](O)[C@H](C)O2)[C@H](C)[C@@H](O[C@@H]2O[C@H](C)C[C@H](N(C)C)[C@H]2O)[C@](C)(O)C[C@@H](C)CN(C)[C@H](C)[C@@H](O)[C@]1(C)O [AZITHROMYCIN] | Not Active | Not Active | Not Active | Not Active | Not Active | Not Active | Not Active | Not Active | Not Active | – | – | – | – | – | – | – |
| Cc1cccc(Nc2ccccc2C(=O)O)c1C [MEFENAMIC ACID] | Not Active | Not Active | Not Active | Not Active | Not Active | Not Active | Not Active | Not Active | Not Active | – | – | – | – | – | – | – |
| COC(=O)c1ccccc1O [METHYL SALICYLATE] | Not Active | Not Active | Not Active | Not Active | Not Active | Not Active | Not Active | Not Active | Not Active | – | – | – | – | – | – | – |
| CC[C@H](C)C(=O)O[C@H]1C[C@H](O)C=C2C=C[C@H](C)[C@H](CC[C@@H](O)C[C@@H](O)CC(=O)O)[C@H]21 [PRAVASTATIN] | Not Active | Not Active | Not Active | Not Active | Not Active | Not Active | Not Active | Not Active | Not Active | – | – | – | – | – | – | – |
| N[C@@H](Cc1ccc(F)cc1)C(=O)O | Not Active | Not Active | Not Active | Not Active | Not Active | Not Active | Not Active | Not Active | Not Active | – | – | – | – | – | – | – |
| C[C@]12C/C(=C/O)C(=O)C[C@@H]1CC[C@@H]1[C@@H]2CC[C@@]2(C)[C@H]1CC[C@]2(C)O [OXYMETHOLONE] | Not Active | Not Active | Not Active | Not Active | Not Active | Not Active | Not Active | Not Active | Not Active | – | – | – | – | – | – | – |
| Clc1cc2c(cc1Cl)Oc1cc(Cl)c(Cl)cc1O2 [2,3,7,8-TETRACHLORODIBENZO-P-DIOXIN] | Not Active | Not Active | Not Active | Not Active | Not Active | Not Active | Not Active | Not Active | Not Active | – | – | – | – | – | – | – |
| OCCO [ETHYLENE GLYCOL] | Not Active | Not Active | Not Active | Not Active | Not Active | Not Active | Not Active | Not Active | Not Active | – | – | – | – | – | – | – |
